Assays:
[1] = system: Raji; assay: Inhibition of 12-O-tetradecanoylphorbol 13-acetate-induced Epstein-Barr virus early antigen activation in human Raji cells assessed as EA induction at 10 mol ratio relative to TPA; values are per cent of control; settings: human gammaherpesvirus 4
[2] = system: Raji; assay: Inhibition of 12-O-tetradecanoylphorbol 13-acetate-induced Epstein-Barr virus early antigen activation in human Raji cells assessed as EA induction at 500 mol ratio relative to TPA; values are per cent of control; settings: human gammaherpesvirus 4
[3] = system: Raji; assay: Inhibition of 12-O-tetradecanoylphorbol 13-acetate-induced Epstein-Barr virus early antigen activation in human Raji cells assessed as EA induction at 100 mol ratio relative to TPA; values are per cent of control; settings: human gammaherpesvirus 4
[4] = system: Raji; assay: Inhibition of 12-O-tetradecanoylphorbol 13-acetate-induced Epstein-Barr virus early antigen activation in human Raji cells assessed as EA induction at 1000 mol ratio relative to TPA; values are per cent of control; settings: human gammaherpesvirus 4
[5] = Cytotoxicity against human Raji cells assessed as cell viability at 1000 molar ratio/TPA; type: cell-based; settings: read-out: Activity

Row | Compound | level, % of control [1] [%] | level, % of control [2] [%] | level, % of control [3] [%] | level, % of control [4] [%] | viability at 1000 molar ratio/TPA [5] [%]
1 | CC1=C(/C=C/C(C)=C/C=C/C(C)=C/C=C/C=C(C)/C=C/C=C(C)/C=C/C2=C(C)CCCC2(C)C)C(C)(C)CCC1 | 100 | 34 | 82 | 9 | –
2 | C=C1CCC[C@]2(C)c3ccc(C(C)C)cc3C(=O)C[C@@H]12 | 96.1 | 31.6 | 75.9 | 0 | 70
3 | CC(=O)/C=C/[C@@H]1[C@@]2(C)CCCC(C)(C)[C@@H]2CC[C@@]1(C)O | 89.3 | 20.7 | 68.4 | 0 | 60
4 | CC(C)c1ccc2c(c1)C(=O)C[C@H]1C(C)(C)CCC[C@]21C | 95 | 30.2 | 74.7 | 0 | 70
5 | CC(C)c1cc2c(cc1O)[C@@]1(C)CCC[C@@](C)(C(=O)O)[C@@H]1CC2 | 95.8 | 28 | 66.4 | 2.7 | 70
6 | COC(=O)[C@]1(C)CCC[C@]2(C)c3ccc(C(C)(C)O)cc3C(=O)C[C@@H]12 | 95 | 28.1 | 72.9 | 0 | 70
7 | CC(C)c1ccc2c(c1)CC[C@H]1[C@](C)(C(=O)O)CCC[C@]21C [DEHYDROABIETIC ACID] | 95.2 | 30.6 | 75 | 0 | 70
8 | C=C[C@]1(C)CC[C@@H]2[C@@]3(C)CC[C@@H](C)C(=C)[C@@H]3CC[C@@]2(C)O1 | 100 | 38.8 | 77.1 | 5.1 | 70
9 | CC(C)c1ccc2c(c1)CC[C@H]1[C@](C)(C(=O)O)CCC[C@]1(C)O2 | 96.9 | 52.7 | 85 | 10.2 | 60
10 | C=C[C@]1(C)CC[C@@H]2[C@@]3(C)CCCC(C)(C)[C@@H]3CC[C@@]2(C)O1 | 100 | 35.9 | 70.4 | 4.3 | 70
11 | CC(C)[C@]12C=C3CC[C@H]4[C@](C)(C(=O)O)CCC[C@]4(C)[C@]3(CC1)OO2 | 90.5 | 24.2 | 63.7 | 0 | 70

Reference: ChEMBL document CHEMBL1142631, “Potential antitumor-promoting diterpenoids from the stem bark of Picea glehni” (J Nat Prod, 2000)
